{"source": "patent US20100322979A1", "about": "“Peptidomimetic Resorbable Peptide-Polymer Hybrid Polyester Nanoparticles” (UNIVERSITY OF SOUTH CAROLINA, priority 2009, published 2010)", "key": {"mouse breast cancer MTCL": {"system": "mouse breast cancer MTCL", "test": "In vivo effect of the NPs on host toxicity and anti-tumor efficacy", "details": "tail vein injection; Dox 6 mg/kg of body weight where present", "description": "In accordance with the present disclosure, a mouse breast cancer MTCL grown under the back skin of syngeneic C3H mice was utilized. When the tumor size reached 300 mm^3, mice were randomly divided into 6 groups (10 mice/group) and received one of these treatments by tail vein injection: PBS, PLAA-EO NPs, PLAA-CV6K2 NPs, Dox, Dox+PLAA-EO NPs, and Dox+PLAA-CV6K2 NPs. The injected Dox amount was 6 mg/kg of body weight. After the treatment, body weight and tumor size were measured daily and the results are shown in FIGS. 10a and 10b, respectively. […] Near-infrared (NIR) imaging was used to determine in vivo distribution of the NPs loaded with near-infrared dye IRDye 800RS Carboxylate (absorption at 786 nm). The infrared intensity in the intestinal region was at least 100 times higher than the other regions (confirmed by sacrificing the animal and directly imaging the intestinal tissue as shown in the inset of FIG. 10c)."}, "HCT116 tumor cell line": {"system": "HCT116 tumor cell line", "test": "Tumor cell toxicity, MTT assay", "format": "cell-based", "details": "Homo sapiens, HCT-116, 72 h; 40 μg/ml Paclitaxel, after 3 days; read-out: cell viability (percentage of drug-free samples)", "description": "Tumor cell toxicity was determined by incubating Paclitaxel drug, encapsulated in NPs, with HCT116 tumor cell line, seeded at a density of 5×10^4 cells/cm^2 and cultured in basal media (40 μg/ml Paclitaxel) for 24, 48, and 72 h. At each time point, suspension was removed, cells were washed with PBS, and viability was assessed by the MTT assay. FIG. 3(d) compares cell viability of HCT116 cells (expressed as the percentage of the values obtained from cells in the presence of drug compared to those in drug-free samples) incubated with 40 μg/ml Paclitaxel with that incubated with the same concentration encapsulated in PLGF NPs. […] Cell viability of Paclitaxel in solution after 3 days was 40% while that encapsulated in NPs was 28%. […] Toxicity of CV6K2-PLGF NPs to normal cells was assessed with bone marrow stromal (BMS) cells isolated from the bone marrow of Wistar rats. BMS cells were seeded in 24 well plates in primary media at a density of 4×10^4 cells/cm^2, incubated for 24 h for cell attachment. After cell attachment, the media was replaced with media containing […] of CV6K2-PLGF NPs and incubated for 1, 2, and 3 days. At each time point, the cells were washed with PBS to remove the free NPs, and the fraction of viable cells was measured by the MTT assay."}, "[1]": {"test": "Release kinetics of Paclitaxel from NPs in-vitro in PBS (pH 7.4)", "format": "physicochemical", "description": "Degradation and release characteristics of NPs. PLGF macromer with 100:0 lactide to glycolide ratio (PLAF) was synthesized by condensation polymerization. CV6K2 peptide was conjugated to PLAF to produce CV6K2-PLAF macromer. PLGF-PLEOF and CV6K2-PLGF NPs were produced by dialysis of the macromers in dimethylsulfoxide/dimethylformamide (DMSO/DMF) against water. Degradation of PLGF-PLEOF NPs was non-linear with incubation. […] To measure release kinetics, Paclitaxel was used as the surrogate molecule. Paclitaxel loaded NPs were prepared by dialysis. After dialysis, the NPs were dissolved in DMSO and 3 ml of acetonitrile-water mixture (50:50 v/v) was added. After 2 h, the suspension was centrifuged and the amount of Paclitaxel in the supernatant was measured by isocratic reverse-phase HPLC with a photodiode array detector at the wavelength of 227 nm. The encapsulation efficiency ranged from 70 to 56% and decreased with increasing Paclitaxel concentration. […]\nRelease profiles of Paclitaxel from CV6K2 NPs: NPs (6% Paclitaxel by weight of the PLAF or PLGF macromer) were prepared by dialysis. After dialysis for 24 h to self-assemble the macromers and to remove the unencapsulated Paclitaxel, encapsulation efficiency was determined by HPLC. The release kinetics of Paclitaxel from the NPs was measured in-vitro in PBS (pH 7.4) for up to 28 days. […]"}, "[2]": {"test": "NP morphology and size distribution by electron microscopy and dynamic light scattering", "format": "physicochemical", "details": "Example 2", "from_the_text": "Fumarate functionalized poly(lactide-co-glycolide) (PLGF) NPs are conjugated with CV6K2 peptide to stabilize the NPs through specific interactions between the amino acid side chains. Low molecular weight poly(lactide-co-glycolide) (LMW PLGA) are synthesized by ring opening polymerization of a mixture of lactide and glycolide monomers. PLGF was synthesized by polymerization of ULMW PLGA with fumaryl chloride (FuCl). The fumarate groups in PLGF macromer provide functionality for covalent attachment of ligands which bind with high specificity to receptors on tumor-associated cells, like the αvβ3 integrin receptor. ULMW PLGA with number-average molecular weight in the range 1-3 kDa was used in the synthesis of PLGF for highest density of unsaturated fumarate groups for ligand conjugation. […] The morphology and size distribution of the NPs were determined by SEM and dynamic light scattering, respectively. […]\nNanoparticle (NP) self-assembly and characterization: PLAF-CV6K2 or PLGF-CV6K2 macromers were dissolved in a solution of 1 mL DMF and 8 mL dimethysulfoxide (DMSO). […] The size distribution of NPs was measured by dynamic light scattering (DLS). […] At each time point, NPs size was measured with DLS. […] The fraction of mass remaining was determined by dividing the dried mass in the supernatant at time t by the initial mass at time zero."}, "MCF-7 cells": {"system": "MCF-7 cells", "test": "Binding of cyclic peptide grafted NPs to tumor cells, confocal microscopy", "format": "cell-based", "from_the_text": "(§1) Targeting to tumor endothelial cells by grafting cyclic c(-RGDfC-) peptide to NPs: The linear D-Phe-Cys-Arg-Gly-Asp peptide was synthesized manually using Fmoc chemistry. After peptide chain elongation, the linear peptide was cyclized directly on the peptidyl resin by coupling the carboxylate group on aspartic acid to the amine group on phenylalanine in the peptide sequence. The cyclized peptide was side-chain deprotected, cleaved from the resin, precipitated in cold ether, and purified by preparative high-performance liquid chromatography (HPLC). The cyclic peptide was characterized by Electro Spray Ionization (ESI) spectrometry For grafting, […] peptide was incubated with NPs at ambient conditions for 10 h. After grafting, the NPs were purified by dialysis against water and incubated with MCF-7 and U87MG tumor cells. After incubation, unattached NPs were removed by washing, cells were fixed, and stained with phalloidin (for cytoskeleton) and DAPI (for cell nuclei) and imaged with confocal microscopy. FIGS. 5(a) and 5(b) show the image of MCF-7 and U87MG cells, respectively. The bright dots in FIG. 5(b) and their absence in FIG. 5(a) are the FITC-stained c(-GRGfC-) peptide grafted NPs that are attached/internalized by U87MG cells that have high expression of αvβ3 integrin receptor."}, "[3]": {"system": "U87MG cells (high expression of αvβ3 integrin receptor)", "test": "Binding of cyclic peptide grafted NPs to tumor cells, confocal microscopy", "format": "cell-based", "from_the_text": "as §1"}}, "note": "Where two headings read alike, the source gives them in different places. Ends that are not written are not given here.", "data": [{"molecule": "COc1cccc2c1C(=O)c1c(O)c3c(c(O)c1C2=O)C[C@@](O)(C(=O)CO)C[C@@H]3O[C@H]1C[C@H](N)[C@H](O)[C@H](C)O1", "note": "[Dox]", "values": [{"measurement": "host toxicity (body weight change)", "setting": "mouse breast cancer MTCL", "result": "highest body weight loss"}]}, {"molecule": "CC(=O)O[C@H]1C(=O)[C@@]2(C)[C@H]([C@H](OC(=O)c3ccccc3)[C@]3(O)C[C@H](OC(=O)[C@H](O)[C@@H](NC(=O)c4ccccc4)c4ccccc4)C(C)=C1C3(C)C)[C@]1(OC(C)=O)CO[C@@H]1C[C@@H]2O", "note": "[Paclitaxel]", "values": [{"measurement": "viability at 40 µg/mL", "setting": "HCT116 tumor cell line", "result": 40, "unit": "%"}]}, {"molecule": "CVVVVVVKK [CV6K2 NPs, NPs self-assembled from the CV6K2 peptide only]", "values": [{"measurement": "duration of Paclitaxel release", "setting": "[1]", "result": 3, "unit": "days"}, {"measurement": "duration of Paclitaxel release", "setting": "[1]; listed as peptide", "result": 5, "unit": "days"}, {"measurement": "average diameter (NP size), DLS", "setting": "[2]", "result": 70, "unit": "nm"}]}, {"molecule": "c(-GRGfC-) grafted NPs: FITC-stained NPs grafted with cyclic D-Phe-Cys-Arg-Gly-Asp peptide", "values": [{"measurement": "attachment/internalization of FITC-stained grafted NPs", "setting": "MCF-7 cells", "result": "absence"}, {"measurement": "attachment/internalization of FITC-stained grafted NPs", "setting": "[3]", "result": "attached/internalized"}]}]}
